Laboratory results from ChEMBL document CHEMBL5715954, “Silencing c-Myc translation as a therapeutic strategy through targeting PI3Kδ and CK1ε in hematological malignancies” (Blood, 2017).
The source made the active and inactive calls. No cut-off for these calls is given here.

How the values were obtained:
[1] = biological target: Myc proto-oncogene protein (Homo sapiens) (UniProt P01106); assay: Inhibition of c-Myc in human LY10 cells assessed as reduction in E2F1 expression at 3 uM incubated for 24 hrs in presence of bortezomib by Western blot analysis; format: cell-based
Myc proto-oncogene protein (Homo sapiens), sequence (P01106 whole entry, canonical isoform): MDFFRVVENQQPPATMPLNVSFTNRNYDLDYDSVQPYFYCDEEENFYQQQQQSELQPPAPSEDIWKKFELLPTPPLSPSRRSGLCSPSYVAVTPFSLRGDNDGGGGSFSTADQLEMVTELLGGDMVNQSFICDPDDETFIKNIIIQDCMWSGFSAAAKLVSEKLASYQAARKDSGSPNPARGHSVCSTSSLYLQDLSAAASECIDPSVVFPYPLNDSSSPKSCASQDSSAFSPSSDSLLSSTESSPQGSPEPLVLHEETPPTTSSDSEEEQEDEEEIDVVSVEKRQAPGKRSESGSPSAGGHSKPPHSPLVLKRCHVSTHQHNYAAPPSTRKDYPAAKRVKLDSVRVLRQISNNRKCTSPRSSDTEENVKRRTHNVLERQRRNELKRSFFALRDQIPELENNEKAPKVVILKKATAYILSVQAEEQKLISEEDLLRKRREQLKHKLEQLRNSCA

[2] = biological target: T1, mTORC1 (Homo sapiens) (UniProt P42345+Q8N122+Q9BVC4); assay: Inhibition of mTORC1 in human LY7 cells assessed as reduction in c-Myc expression at 3 uM measured after 24 hrs in presence of bortezomib by Western blot analysis; format: cell-based
T1 sequence (Q8N122 whole entry, looked up, other chains not shown): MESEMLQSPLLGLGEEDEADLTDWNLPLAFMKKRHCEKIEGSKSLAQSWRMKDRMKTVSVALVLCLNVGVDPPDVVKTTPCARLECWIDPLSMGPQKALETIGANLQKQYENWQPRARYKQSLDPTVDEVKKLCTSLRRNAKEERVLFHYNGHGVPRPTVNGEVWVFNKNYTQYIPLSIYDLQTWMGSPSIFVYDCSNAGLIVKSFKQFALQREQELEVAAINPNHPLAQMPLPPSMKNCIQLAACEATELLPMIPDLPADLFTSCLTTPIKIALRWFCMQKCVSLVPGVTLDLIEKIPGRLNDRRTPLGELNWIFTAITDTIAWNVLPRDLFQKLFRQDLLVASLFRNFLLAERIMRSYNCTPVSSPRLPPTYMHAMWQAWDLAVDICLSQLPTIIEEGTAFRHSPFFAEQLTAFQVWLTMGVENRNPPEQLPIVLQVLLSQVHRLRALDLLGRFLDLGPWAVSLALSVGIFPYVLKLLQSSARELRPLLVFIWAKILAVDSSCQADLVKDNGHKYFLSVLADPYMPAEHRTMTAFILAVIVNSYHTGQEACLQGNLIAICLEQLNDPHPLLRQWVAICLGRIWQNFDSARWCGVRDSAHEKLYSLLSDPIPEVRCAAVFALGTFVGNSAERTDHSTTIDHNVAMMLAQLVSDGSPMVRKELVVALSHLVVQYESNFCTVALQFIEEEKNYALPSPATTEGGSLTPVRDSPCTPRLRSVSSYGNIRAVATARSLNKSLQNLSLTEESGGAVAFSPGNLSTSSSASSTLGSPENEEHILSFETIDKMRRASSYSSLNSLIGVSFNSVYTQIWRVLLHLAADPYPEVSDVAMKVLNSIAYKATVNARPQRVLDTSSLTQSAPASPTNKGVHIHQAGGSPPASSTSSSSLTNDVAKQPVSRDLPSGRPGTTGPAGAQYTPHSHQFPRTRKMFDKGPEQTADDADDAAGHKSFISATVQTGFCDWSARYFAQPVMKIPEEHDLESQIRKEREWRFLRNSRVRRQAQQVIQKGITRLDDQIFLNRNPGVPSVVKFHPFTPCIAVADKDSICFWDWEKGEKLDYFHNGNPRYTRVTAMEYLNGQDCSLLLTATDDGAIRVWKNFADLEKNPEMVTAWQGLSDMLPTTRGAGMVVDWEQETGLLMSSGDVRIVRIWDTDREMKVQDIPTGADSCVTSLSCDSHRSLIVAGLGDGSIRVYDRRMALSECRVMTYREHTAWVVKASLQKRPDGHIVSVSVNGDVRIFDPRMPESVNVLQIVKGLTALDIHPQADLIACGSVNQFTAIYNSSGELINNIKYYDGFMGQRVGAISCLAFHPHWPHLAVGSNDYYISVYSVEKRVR
T1 sequence (Q9BVC4 whole entry, looked up, other chains not shown): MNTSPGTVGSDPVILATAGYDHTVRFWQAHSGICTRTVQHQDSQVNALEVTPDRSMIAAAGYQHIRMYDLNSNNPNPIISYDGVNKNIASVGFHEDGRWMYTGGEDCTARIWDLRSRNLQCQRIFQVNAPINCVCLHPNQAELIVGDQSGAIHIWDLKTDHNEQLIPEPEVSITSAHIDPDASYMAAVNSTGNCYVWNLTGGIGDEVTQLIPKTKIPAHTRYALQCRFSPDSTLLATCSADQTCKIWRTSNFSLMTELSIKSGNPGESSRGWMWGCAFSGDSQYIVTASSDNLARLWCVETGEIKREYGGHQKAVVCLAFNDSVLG

[3] = biological target: T1, mTORC1 (Homo sapiens); assay: Inhibition of mTORC1 in human PF-382 cells assessed as reduction in 4E-BP1 phosphorylation at 5 uM measured after 24 hrs in presence of bortezomib by Western blot analysis; format: cell-based
[4] = system: LY7; assay: Induction of apoptosis in human LY7 cells assessed as increase in cleaved-PARP expression at 3 uM measured after 24 hrs in presence of bortezomib by Western blot analysis; format: functional, cell-based
[5] = biological target: T1, mTORC1 (Homo sapiens); assay: Inhibition of mTORC1 in human CLL cells assessed as reduction in c-Myc expression at 5 uM measured after 24 hrs in presence of bortezomib by Western blot analysis; format: cell-based; details: CLL cell
[6] = biological target: T1, mTORC1 (Homo sapiens); assay: Inhibition of mTORC1 in human LY7 cells assessed as reduction in 4E-BP1 phosphorylation at 3 uM measured after 24 hrs in presence of bortezomib by Western blot analysis; format: cell-based
[7] = biological target: T2, Phosphatidylinositol 4,5-bisphosphate 3-kinase catalytic subunit delta isoform (Homo sapiens) (UniProt O00329); assay: Inhibition of PI3Kdelta in human HL-60 cells assessed as reduction in AKT phosphorylation at S473 residue at 1 uM measured after 4 hrs relative to control; format: cell-based
T2 sequence (whole entry): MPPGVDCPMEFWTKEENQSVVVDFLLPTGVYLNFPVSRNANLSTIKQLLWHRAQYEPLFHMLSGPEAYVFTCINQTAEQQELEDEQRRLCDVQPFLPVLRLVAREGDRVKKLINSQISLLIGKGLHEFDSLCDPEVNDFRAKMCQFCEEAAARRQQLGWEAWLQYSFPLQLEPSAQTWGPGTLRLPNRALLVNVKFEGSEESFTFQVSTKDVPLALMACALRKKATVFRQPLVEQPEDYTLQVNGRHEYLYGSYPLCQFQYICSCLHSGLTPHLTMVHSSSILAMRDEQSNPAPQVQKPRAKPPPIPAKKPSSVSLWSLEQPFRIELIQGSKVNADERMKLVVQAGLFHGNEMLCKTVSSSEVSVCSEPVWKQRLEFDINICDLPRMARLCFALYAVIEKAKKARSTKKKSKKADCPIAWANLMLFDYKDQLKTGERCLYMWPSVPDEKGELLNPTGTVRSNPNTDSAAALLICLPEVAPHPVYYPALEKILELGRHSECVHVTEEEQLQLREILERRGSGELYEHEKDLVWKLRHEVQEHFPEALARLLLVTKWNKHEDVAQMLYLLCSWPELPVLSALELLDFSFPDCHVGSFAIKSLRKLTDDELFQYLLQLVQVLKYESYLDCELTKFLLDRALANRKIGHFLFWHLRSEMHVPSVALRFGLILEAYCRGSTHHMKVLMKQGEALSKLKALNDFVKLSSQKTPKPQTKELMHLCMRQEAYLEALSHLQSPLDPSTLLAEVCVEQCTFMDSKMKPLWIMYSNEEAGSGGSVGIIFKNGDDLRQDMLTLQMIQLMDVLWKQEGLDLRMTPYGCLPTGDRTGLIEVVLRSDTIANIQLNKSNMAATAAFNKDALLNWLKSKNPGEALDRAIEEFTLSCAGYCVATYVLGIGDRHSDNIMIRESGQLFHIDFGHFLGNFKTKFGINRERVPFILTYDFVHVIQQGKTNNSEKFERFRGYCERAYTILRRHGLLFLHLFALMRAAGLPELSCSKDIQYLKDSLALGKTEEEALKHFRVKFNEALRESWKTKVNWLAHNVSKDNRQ

[8] = system: MOLT-4; assay: Antitumor activity against human MOLT-4 cells xenografted in NOD/SCID mouse assessed as reduction in tumor volume at 150 mg/kg, po administered daily for 25 days measured at 2 to 3 times per week during compound dosing by caliper method; format: functional, organism-based; details: time 25.0 day
[9] = biological target: T2, Phosphatidylinositol 4,5-bisphosphate 3-kinase catalytic subunit delta isoform (Homo sapiens); assay: Inhibition of PI3Kdelta in human Jurkat cells assessed as reduction in AKT phosphorylation at S473 residue measured after 4 hrs; format: cell-based; details: dose 10-10000 nM
[10] = system: LY7; assay: Inhibition of PI3Kdelta/CK1epsilon in human LY7 cells assessed as reduction in c-Myc expression at 15 to 50 uM measured after 24 hrs by Western blot analysis; format: cell-based; details: dose 15-50 µM
[11] = biological target: T1, mTORC1 (Homo sapiens); assay: Inhibition of mTORC1 in human CLL cells assessed as reduction in 4E-BP1 phosphorylation at 5 uM measured after 24 hrs in presence of carfilzomib by Western blot analysis; format: cell-based; details: CLL cell
[12] = biological target: Myc proto-oncogene protein (Homo sapiens) (UniProt P01106); assay: Inhibition of c-Myc in human LY7 cells assessed as reduction in eIF4B expression at 3 uM incubated for 24 hrs in presence of carfilzomib by Western blot analysis; format: cell-based
[13] = biological target: T2, Phosphatidylinositol 4,5-bisphosphate 3-kinase catalytic subunit delta isoform (Homo sapiens); assay: Inhibition of PI3Kdelta in human THP-1 cells assessed as reduction in AKT phosphorylation at S473 residue measured after 4 hrs; format: cell-based; details: dose 10-10000 nM
[14] = biological target: T1, mTORC1 (Homo sapiens); assay: Inhibition of mTORC1 in human PF-382 cells assessed as reduction in c-Myc expression at 5 uM measured after 24 hrs in presence of carfilzomib by Western blot analysis; format: cell-based
[15] = biological target: T1, mTORC1 (Homo sapiens); assay: Inhibition of mTORC1 in human NCI-H929 cells assessed as reduction in c-Myc expression at 5 uM measured after 24 hrs by Western blot analysis; format: cell-based
[16] = Inhibition of PI3Kdelta/CK1epsilon in human OCILY7 cells transfected with c-myc-5'-UTR-luciferase construct assessed as reduction in c-myc translation at 15 uM incubated for 24 hrs by luciferase reporter gene assay relative to control; details: OCI-Ly7
[17] = system: OCILY7; assay: Inhibition of PI3Kdelta/CK1epsilon in human OCILY7 cells transfected with an empty vector assessed as reduction in c-Myc expression at 7.5 to 25 uM measured after 24 hrs by Western blot analysis; format: cell-based; details: dose 7.5-25 µM
[18] = system: OCILY7; assay: Inhibition of PI3Kdelta/CK1epsilon in human OCILY7 cells transfected with c-Myc-expressing plasmid (M+) assessed as reduction in c-Myc expression at 7.5 to 25 uM measured after 24 hrs by Western blot analysis; format: cell-based; details: dose 7.5-25 µM
[19] = biological target: T1, mTORC1 (Homo sapiens); assay: Inhibition of mTORC1 in human NCI-H929 cells assessed as reduction in c-Myc expression at 5 uM measured after 24 hrs in presence of carfilzomib by Western blot analysis; format: cell-based
[20] = biological target: T1, mTORC1 (Homo sapiens); assay: Inhibition of mTORC1 in human PF-382 cells assessed as reduction in 4E-BP1 phosphorylation at 5 uM measured after 24 hrs in presence of carfilzomib by Western blot analysis; format: cell-based
[21] = system: OCI-Ly7; assay: Cytotoxicity against human OCILY7 cells transfected with empty vector assessed as reduction in cell viability at 3 to 5 uM incubated for 24 hrs in presence of carfilzomib by cell-titer glo assay; format: functional, cell-based; details: dose 3-5 µM
[22] = biological target: T1, mTORC1 (Homo sapiens); assay: Inhibition of mTORC1 in human LY10 cells assessed as reduction in 4E-BP1 phosphorylation at 3 uM measured after 24 hrs in presence of carfilzomib by Western blot analysis; format: cell-based

CC[C@H](Nc1ncnc2[nH]cnc12)c1nc2cccc(F)c2c(=O)n1-c1ccccc1
inhibition [1]: inactive | inhibition [2]: inactive | inhibition [3]: inactive | Activity [4]: Active | inhibition [5]: inactive | inhibition [6]: inactive

CC(C)Oc1ccc(-c2nn([C@@H](C)c3oc4ccc(F)cc4c(=O)c3-c3cccc(F)c3)c3ncnc(N)c23)cc1F [UMBRALISIB]
inhibition [7]: 43% | Activity [8]: Active | inhibition [9]: Dose-Dependent Effect | inhibition [10]: Active | inhibition [11]: Active | inhibition [12]: Active | inhibition [13]: Dose-Dependent Effect | inhibition [14]: Active | inhibition [15]: inactive | inhibition at 15 µM [16]: > 50% | inhibition [17]: Active | inhibition [18]: inactive | inhibition [19]: Active | inhibition [20]: Active | Activity [21]: Active | inhibition [22]: Active
